# Reference: ChEMBL document CHEMBL1201862, “PubChem BioAssay data set” (2004)
# The source made the active and inactive calls.
# Assays:
# [1] = target: T1, Coagulation factor XII (Homo sapiens, UniProt P00748); assay: activated coagulation factor XII inhibitor potency, concentration-effect curve, cell-free (AID 716); assay type: functional
# T1 sequence (P00748 whole entry): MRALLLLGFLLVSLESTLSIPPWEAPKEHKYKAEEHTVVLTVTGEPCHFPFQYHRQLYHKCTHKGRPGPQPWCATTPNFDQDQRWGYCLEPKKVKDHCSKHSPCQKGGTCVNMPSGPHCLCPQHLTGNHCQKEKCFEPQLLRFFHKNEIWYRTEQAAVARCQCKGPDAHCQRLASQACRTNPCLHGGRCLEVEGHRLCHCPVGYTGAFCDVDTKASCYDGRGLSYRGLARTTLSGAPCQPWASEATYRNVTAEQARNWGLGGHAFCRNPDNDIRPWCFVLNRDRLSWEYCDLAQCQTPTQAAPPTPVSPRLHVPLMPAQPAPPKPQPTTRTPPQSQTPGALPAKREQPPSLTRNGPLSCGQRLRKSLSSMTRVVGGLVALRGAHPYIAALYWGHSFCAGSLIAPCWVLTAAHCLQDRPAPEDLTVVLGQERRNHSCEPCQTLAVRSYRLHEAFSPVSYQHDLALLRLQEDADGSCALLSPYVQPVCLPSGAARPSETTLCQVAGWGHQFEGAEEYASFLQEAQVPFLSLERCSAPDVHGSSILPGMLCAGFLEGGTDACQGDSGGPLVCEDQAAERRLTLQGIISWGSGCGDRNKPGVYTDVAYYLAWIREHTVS
# [2] = target: T2, Heat shock factor protein 1 (Mus musculus, UniProt P38532); assay: decrease of HSF1-responsive luciferase luminescence – cell-based, NIH3T3, dose retest, confirmation (AID 2382); assay type: functional;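 also: NIH3T3 fibroblasts with HSF1-driven luciferase reporter stressed by proteasome inhibitor MG132; luminescence from HSF1-driven luciferase expression after 8 hours of MG132 stress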
# T2 sequence (P38532 whole entry): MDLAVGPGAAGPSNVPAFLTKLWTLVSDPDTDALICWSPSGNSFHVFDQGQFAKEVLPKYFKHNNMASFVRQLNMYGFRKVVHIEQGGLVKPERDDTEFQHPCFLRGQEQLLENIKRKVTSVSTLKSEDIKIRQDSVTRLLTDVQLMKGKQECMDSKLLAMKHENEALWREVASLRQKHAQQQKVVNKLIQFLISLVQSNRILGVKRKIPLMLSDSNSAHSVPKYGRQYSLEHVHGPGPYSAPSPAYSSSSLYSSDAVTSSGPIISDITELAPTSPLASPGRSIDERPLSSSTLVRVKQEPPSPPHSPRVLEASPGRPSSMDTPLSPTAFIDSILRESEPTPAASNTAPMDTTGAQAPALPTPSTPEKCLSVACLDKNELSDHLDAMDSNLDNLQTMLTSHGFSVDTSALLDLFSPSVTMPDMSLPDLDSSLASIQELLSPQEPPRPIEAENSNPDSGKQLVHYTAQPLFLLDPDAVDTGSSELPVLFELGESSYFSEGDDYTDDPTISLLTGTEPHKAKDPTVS
# [3] = toxicity toward cultured mammalian cells – cell-based, plate reader, cherry-pick samples, cytotoxicity control, dose response (AID 504397); assay type: functional
# [4] = target: T3, CAAX prenyl protease 2 (Saccharomyces cerevisiae S288c, UniProt Q03530); assay type: biochemical
# T3 sequence (Q03530 whole entry): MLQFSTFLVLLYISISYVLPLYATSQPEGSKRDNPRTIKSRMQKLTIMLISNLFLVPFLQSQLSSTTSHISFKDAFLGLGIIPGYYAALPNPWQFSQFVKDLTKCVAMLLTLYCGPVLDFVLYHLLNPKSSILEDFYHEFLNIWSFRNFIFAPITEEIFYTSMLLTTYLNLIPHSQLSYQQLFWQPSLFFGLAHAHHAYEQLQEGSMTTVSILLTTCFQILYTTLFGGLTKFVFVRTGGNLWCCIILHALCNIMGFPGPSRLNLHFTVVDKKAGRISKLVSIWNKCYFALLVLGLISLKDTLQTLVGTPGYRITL
# [5] = target: SUMO-activating enzyme (Homo sapiens, UniProt Q9UBT2); assay: blockers of UBC9-mediated SUMO conjugation – biochemical, AlphaScreen, SUMOylation inhibitor project, confirmation (AID 2018); assay type: functional
# Chain of SUMO-activating enzyme (Q9UBE0 whole entry, the tested form may be a part): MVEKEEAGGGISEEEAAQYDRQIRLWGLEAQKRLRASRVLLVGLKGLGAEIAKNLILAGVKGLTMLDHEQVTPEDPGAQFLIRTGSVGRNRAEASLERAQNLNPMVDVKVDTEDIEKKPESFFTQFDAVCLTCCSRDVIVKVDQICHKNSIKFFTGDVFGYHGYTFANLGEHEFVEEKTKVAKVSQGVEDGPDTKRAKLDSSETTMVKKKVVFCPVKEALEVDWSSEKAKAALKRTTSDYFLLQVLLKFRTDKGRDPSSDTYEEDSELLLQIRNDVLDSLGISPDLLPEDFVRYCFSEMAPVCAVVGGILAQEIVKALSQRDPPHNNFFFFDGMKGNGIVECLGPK
# Chain of SUMO-activating enzyme (Q9UBT2 whole entry, the tested form may be a part): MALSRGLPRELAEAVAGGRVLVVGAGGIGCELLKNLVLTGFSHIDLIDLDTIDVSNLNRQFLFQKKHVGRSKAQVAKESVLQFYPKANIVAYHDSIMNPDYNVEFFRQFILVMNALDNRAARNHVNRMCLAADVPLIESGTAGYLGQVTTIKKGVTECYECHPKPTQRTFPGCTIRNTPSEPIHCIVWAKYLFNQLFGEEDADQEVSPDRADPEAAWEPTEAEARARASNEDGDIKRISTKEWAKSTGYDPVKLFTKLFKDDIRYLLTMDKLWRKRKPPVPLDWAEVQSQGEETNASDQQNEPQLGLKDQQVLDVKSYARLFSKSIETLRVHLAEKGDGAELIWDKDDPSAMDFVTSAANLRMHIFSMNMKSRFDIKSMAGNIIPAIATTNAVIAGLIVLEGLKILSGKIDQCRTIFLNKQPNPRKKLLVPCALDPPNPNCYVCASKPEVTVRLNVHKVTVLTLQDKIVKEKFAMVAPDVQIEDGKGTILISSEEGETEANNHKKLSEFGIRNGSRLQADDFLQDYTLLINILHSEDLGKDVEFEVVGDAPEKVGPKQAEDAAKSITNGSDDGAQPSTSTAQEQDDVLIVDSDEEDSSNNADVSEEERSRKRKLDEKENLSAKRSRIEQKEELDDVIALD
# [6] = target: T4, Type-1 angiotensin II receptor (Homo sapiens, UniProt P30556); assay: agonist activity at AGTR1 – cell-based, uHTS hits, selectivity assay for APJ receptor agonist project, dose response (AID 488865); assay type: functional;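 also: beta-arrestin recruitment to AT1 measured by enzyme fragment complementation luminescence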
# T4 sequence (P30556 whole entry): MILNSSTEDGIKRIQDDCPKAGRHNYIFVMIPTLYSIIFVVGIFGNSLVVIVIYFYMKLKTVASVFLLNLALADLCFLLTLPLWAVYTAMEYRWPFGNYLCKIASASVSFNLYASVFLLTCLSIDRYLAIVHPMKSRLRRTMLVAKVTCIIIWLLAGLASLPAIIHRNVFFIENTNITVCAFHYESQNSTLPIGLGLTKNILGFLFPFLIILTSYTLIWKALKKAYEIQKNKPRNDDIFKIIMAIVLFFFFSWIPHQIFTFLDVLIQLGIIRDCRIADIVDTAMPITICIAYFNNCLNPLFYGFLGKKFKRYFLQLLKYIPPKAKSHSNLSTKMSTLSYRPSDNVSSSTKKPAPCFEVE
# [7] = Trypanosoma cruzi growth suppression in host cells – NIH3T3 host cells, beta-gal luminescence, confirmation (AID 2044); assay type: functional, cell-based;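 also: intracellular parasites grown in NIH/3T3 mouse fibroblasts as host cells; luminescent beta-galactosidase reporter signal from transgenic T. cruzi replicating inside host cells; inhibitors lower the luminescence signal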
# [8] = NIH3T3 cell viability loss – ATP luminescence, mouse fibroblasts, counter-screen, dose response (AID 2010); assay type: functional, cell-based;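 also: cells exposed to compound for about 90 hours before reading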
# [9] = test system: HEK293; assay: EBV LMP1 TES2 canonical NF-kB signalling blockers – cell-based, HEK293, luciferase, cherry-pick, dose response (AID 588343); assay type: functional; conditions: Homo sapiens
# [10] = target: T5, Runt-related transcription factor 1/Core-binding factor subunit beta (Homo sapiens, UniProt Q01196+Q13951); assay: Runt domain/CBFb-SMMHC interaction disruptors – biochemical, TR-FRET (AID 1438); assay type: protein assay
# T5 sequence (Q01196 whole entry, the tested form may be a part): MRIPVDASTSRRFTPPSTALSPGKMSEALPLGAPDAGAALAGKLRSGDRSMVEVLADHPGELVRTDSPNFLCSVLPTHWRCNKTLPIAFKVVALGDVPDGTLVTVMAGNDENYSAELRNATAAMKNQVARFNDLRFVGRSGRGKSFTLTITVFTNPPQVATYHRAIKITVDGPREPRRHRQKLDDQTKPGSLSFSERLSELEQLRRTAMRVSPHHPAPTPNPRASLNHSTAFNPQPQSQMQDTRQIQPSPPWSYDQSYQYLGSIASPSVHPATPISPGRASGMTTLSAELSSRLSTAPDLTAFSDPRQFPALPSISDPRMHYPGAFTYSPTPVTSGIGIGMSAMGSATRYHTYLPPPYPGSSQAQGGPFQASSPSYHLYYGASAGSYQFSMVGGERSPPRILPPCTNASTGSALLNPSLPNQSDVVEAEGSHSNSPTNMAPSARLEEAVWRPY
# T5 sequence (Q13951 whole entry, the tested form may be a part): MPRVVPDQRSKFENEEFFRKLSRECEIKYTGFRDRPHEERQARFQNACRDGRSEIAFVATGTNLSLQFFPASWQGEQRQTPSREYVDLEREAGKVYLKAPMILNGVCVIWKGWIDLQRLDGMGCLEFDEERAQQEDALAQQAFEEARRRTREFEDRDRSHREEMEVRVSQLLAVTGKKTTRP
# [11] = target: T5, Runt-related transcription factor 1/Core-binding factor subunit beta; assay: disruptors of Runt domain/CBFb-SMMHC interaction – biochemical, FRET, Cerulean-Runt, Venus-CBFb-SMMHC, uHTS, […] (AID 1434); assay type: protein assay
# [12] = target: T6, Mannose-6-phosphate isomerase (Homo sapiens, UniProt P34949); assay: MPI inhibition at elevated mannose 6-phosphate – biochemical, fluorescence intensity, high mannose 6-phosphate, primary screen (AID 1220)
# T6 sequence (P34949 whole entry): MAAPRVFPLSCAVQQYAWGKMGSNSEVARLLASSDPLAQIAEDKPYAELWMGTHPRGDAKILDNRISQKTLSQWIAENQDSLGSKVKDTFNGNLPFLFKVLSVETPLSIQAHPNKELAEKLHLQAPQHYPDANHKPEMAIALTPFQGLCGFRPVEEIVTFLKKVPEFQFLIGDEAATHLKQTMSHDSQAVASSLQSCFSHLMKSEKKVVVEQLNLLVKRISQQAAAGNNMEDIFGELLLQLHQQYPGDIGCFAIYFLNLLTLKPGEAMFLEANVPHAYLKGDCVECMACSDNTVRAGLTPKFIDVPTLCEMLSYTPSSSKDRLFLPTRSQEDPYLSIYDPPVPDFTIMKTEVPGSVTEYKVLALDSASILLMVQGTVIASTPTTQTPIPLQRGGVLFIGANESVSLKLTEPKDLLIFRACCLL
# [13] = NIH-3T3 fibroblast cytotoxicity, dose response, cytotoxicity control, cell-based, fluorescence, Alamar Blue, secondary assay (AID 2327); assay type: functional;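 also: NIH-3T3 mouse fibroblasts cultured with fluconazole at 8 µg/mL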
# [14] = fluconazole-exposed Candida albicans growth modulators – fluorescence, retest, confirmation (AID 2467); assay type: functional, cell-based
# [15] = target: Induced myeloid leukemia cell differentiation protein Mcl-1 (Homo sapiens, UniProt Q07820); assay type: functional
# Chain of Induced myeloid leukemia cell differentiation protein Mcl-1 (Q07820 whole entry): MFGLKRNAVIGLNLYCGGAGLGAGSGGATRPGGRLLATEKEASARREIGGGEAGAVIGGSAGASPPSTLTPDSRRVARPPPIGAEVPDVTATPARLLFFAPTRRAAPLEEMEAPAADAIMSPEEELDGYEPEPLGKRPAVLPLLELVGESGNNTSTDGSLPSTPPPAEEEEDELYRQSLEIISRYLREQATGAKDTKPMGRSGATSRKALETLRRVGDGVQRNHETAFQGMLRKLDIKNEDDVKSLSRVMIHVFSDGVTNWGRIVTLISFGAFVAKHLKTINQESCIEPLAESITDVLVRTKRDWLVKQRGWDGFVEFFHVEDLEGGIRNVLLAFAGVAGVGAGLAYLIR
# [16] = target: 26S proteasome non-ATPase regulatory subunit 14 (Homo sapiens, UniProt O00487); assay: inhibition of proteasome subunit RPN11 – biochemical, fluorescence polarization, uHTS hits, confirmation (AID 602368); assay type: functional
# Chain of 26S proteasome non-ATPase regulatory subunit 14 (O00487 whole entry): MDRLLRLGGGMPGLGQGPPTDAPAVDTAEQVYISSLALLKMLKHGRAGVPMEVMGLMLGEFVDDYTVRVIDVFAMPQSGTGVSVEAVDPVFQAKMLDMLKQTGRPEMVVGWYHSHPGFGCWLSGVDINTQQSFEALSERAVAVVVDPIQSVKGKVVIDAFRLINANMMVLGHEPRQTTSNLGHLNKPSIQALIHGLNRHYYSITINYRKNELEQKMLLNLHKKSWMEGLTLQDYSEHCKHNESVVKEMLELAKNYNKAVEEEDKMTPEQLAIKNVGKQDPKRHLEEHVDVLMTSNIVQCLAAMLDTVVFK
# [17] = target: Prothrombin (Bos taurus, UniProt P00735); assay: thrombin protease inhibitors – biochemical, fluorescence polarization, uHTS hits, dose response (AID 602369); assay type: functional
# [18] = target: 72 kDa type IV collagenase (Homo sapiens, UniProt P08253); assay: Dose Response validation of uHTS RPN11 inhibitor hits using a MMP-2 Fluorescence assay.; assay type: functional
# Chain of 72 kDa type IV collagenase (P08253 whole entry): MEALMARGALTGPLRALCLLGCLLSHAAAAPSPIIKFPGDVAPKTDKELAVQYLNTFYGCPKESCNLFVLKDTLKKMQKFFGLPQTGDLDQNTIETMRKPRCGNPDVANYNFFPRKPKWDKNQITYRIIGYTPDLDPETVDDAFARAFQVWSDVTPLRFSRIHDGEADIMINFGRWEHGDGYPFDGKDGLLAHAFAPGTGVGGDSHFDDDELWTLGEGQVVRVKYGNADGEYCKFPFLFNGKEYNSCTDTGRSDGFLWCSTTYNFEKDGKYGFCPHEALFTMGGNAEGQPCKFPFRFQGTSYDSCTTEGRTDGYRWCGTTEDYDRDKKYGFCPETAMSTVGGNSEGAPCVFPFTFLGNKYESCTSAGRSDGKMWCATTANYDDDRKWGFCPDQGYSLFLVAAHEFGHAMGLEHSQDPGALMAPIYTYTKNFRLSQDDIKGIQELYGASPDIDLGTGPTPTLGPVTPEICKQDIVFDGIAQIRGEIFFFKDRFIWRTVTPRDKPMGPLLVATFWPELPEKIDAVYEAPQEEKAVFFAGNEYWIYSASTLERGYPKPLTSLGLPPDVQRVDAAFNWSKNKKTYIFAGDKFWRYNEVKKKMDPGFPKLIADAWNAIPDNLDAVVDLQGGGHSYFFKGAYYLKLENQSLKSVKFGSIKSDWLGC
# [19] = target: T7, Aryl hydrocarbon receptor (Homo sapiens, UniProt P35869); assay: Luminescence-based cell-based high throughput dose response assay for activators of the Aryl Hydrocarbon Receptor (AHR). [Related pubchem assays: 2796 (Primary screen (AHR activators in singlicate)), 2845 (Confirmation screen (AHR activators in triplicate)), 434939 (Counterscreen (PXR activators in triplicate)), 2804 (Summary (AHR activators))]; assay type: ADME
# T7 sequence (P35869 whole entry): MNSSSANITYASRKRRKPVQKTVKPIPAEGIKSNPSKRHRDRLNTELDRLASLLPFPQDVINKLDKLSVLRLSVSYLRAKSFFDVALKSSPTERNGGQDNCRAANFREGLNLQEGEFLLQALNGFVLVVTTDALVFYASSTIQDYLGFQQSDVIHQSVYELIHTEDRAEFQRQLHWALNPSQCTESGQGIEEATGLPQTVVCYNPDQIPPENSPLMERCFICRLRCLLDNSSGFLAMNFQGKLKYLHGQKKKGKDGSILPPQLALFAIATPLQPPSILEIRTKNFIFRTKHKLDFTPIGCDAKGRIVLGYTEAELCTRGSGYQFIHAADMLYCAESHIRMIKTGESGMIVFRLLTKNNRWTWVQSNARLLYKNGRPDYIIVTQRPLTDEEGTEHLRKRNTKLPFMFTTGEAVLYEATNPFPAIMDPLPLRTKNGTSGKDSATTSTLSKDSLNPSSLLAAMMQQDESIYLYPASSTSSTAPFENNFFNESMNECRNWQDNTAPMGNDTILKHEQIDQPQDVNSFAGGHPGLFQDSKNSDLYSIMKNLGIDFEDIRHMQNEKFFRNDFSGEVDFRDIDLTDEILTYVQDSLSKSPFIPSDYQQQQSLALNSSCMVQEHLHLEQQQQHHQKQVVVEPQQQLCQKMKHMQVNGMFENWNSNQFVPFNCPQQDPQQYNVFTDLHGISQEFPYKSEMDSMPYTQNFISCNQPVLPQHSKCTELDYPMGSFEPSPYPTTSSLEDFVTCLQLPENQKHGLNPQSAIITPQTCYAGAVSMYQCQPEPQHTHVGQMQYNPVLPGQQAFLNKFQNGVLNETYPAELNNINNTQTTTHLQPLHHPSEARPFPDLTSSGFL
smiles,measurement,setting,value
O=C(Nc1nccs1)c1cccc(S(=O)(=O)N2CCCCC2)c1,IC50,[1],> 50 µM (inactive)
CN(C(=O)c1ccc2c(c1)SC1=NS(=O)(=O)CCN12)C(c1ccccc1)c1ccccc1,EC50,[2],> 195 µM (not active)
same,AC50,[3],138 µM (active)
same,AC50,[4],2.1 µM (active)
CCc1cc2cc(C(=O)Nc3ccccc3F)sc2s1,IC50,[1],> 50 µM (inactive)
Cc1ccc(O)c(NC(=O)c2cc3nc4c(c(C(F)(F)F)n3n2)CCc2ccccc2-4)c1,IC50,[5],63.7 µM (active)
Cc1ccc(S(=O)(=O)Nc2nc(-c3ccccc3)cs2)cc1,EC50,[6],> 100 µM (inactive)
Oc1c(N=NC(S)=Nc2ccccc2F)c2ccccc2n1Cc1ccccc1Cl,EC50,[7],1.28 µM (active)
same,EC50,[8],17.5 µM (active)
same,AC50,[3],210 µM (active)
same,AC50,[9],18.7 µM (active)
O=C(CC1Sc2ccccc2NC1=O)OCc1cc(=O)oc2cc(O)ccc12 (centres undefined),IC50,[10],19.6 µM (active)
same,IC50,[11],2.71 µM (active)
Cc1cccc(N2CCc3c2nc2ccc(Br)cc2c3N)c1,IC50,[12],> 50 µM (not active)
same,EC50,[13],21.4 µM (inconclusive)
same,AC50,[3],94.9 µM (active)
same,AC50,[4],8.82 µM (active)
same,EC50,[14],1.67 µM (active)
CC(C)CNC(=O)c1c(N)n(Cc2ccco2)c2nc3ccccc3nc12,IC50,[10],11.7 µM (active)
same,IC50,[11],1.86 µM (active)
same,IC50,[15],4.4 µM (not active)
CCCCC1=CC2=CC(=O)C(C)(OC(=O)C3CCCC3)C(=O)C2=CO1 (centres undefined),IC50,[16],7.64 µM (active)
same,IC50,[17],7.84 µM (active)
same,EC50,[6],> 100 µM (inactive)
same,IC50,[18],> 100 µM (inactive)
COc1cccc2c(=O)c3cccc(N)c3[nH]c12,IC50,[10],> 100 µM (inactive)
same,EC50,[19],> 91.8 µM (not active)
same,IC50,[11],> 100 µM (inactive)
same,IC50,[15],6.38 µM (not active)
